Test [1] concerns the target T1, Prostaglandin G/H synthase 2 (Homo sapiens, UniProt P35354).
T1 sequence (P35354 whole entry): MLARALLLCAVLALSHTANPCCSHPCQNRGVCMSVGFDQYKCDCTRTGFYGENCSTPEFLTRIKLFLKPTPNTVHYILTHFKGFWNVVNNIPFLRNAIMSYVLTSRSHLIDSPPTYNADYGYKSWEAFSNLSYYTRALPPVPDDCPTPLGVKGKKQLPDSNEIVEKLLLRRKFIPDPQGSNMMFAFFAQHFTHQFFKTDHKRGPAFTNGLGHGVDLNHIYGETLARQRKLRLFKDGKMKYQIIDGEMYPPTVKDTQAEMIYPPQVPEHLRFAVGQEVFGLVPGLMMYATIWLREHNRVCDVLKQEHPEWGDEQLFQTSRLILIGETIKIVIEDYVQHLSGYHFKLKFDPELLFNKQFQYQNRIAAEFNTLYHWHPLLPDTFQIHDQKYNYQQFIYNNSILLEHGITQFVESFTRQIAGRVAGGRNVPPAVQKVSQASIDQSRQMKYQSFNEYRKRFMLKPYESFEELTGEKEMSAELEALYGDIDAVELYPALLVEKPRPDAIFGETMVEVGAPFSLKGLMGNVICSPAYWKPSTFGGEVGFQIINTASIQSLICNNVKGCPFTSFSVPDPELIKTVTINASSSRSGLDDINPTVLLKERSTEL
The test is described as follows: Inhibition of human recombinant COX-2 using arachidonic acid as substrate pretreated for 5 mins followed by substrate addition and measured after 2 mins by fluorescence based analysis.

The target of test [2] is T2, Prostaglandin G/H synthase 1 (Ovis aries, UniProt P05979).
T2 sequence (P05979 whole entry): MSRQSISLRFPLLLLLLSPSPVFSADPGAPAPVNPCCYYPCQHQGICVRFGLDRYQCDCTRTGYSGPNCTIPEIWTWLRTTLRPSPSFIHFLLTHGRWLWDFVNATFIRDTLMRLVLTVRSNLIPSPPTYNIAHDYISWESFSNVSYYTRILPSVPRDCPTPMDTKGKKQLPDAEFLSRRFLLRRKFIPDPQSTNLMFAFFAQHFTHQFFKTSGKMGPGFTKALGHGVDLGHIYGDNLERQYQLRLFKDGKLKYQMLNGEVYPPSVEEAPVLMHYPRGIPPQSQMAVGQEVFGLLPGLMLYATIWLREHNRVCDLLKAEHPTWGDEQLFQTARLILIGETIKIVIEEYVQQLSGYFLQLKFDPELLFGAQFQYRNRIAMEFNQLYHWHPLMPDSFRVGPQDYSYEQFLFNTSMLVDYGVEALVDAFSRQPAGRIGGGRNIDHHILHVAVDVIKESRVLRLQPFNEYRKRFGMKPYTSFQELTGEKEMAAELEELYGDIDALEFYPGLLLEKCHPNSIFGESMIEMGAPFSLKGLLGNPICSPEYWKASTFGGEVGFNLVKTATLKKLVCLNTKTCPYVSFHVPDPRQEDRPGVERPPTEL
The experiment in a line: Inhibition of sheep COX-1 using arachidonic acid as substrate pretreated for 5 mins followed by substrate addition and measured after 2 mins by fluorescence based analysis.

Test [3] in a line: Selectivity index, ratio of IC50 for ovine COX-1 to IC50 for human COX-2.
In test [4] the test system is Mus musculus. The test is described as follows: Antiinflammatory activity against DSS-induced ulcerative colitis BALB/c mouse assessed as suppression of weight loss at 0.25 mg/kg, po for 5 days and measured on day 10. The test is classed as functional, organism-based. The conditions noted are these: time 10.0 day.
Test [5] deals with Mus musculus. The experiment in a line: Antiinflammatory activity against DSS-induced ulcerative colitis BALB/c mouse assessed as reduction in DAI score at 0.25 mg/kg, po for 5 days and measured after 12 days. The test is classed as functional, organism-based. The conditions noted are these: time 12.0 day.

SMILES strings stand for the structures. The source made the active and inactive calls. The rule behind the calls is not given here.

As a reminder, the IC50 is the midpoint of a concentration-inhibition curve. With `COc1ccccc1C1=Nn2c(Cc3ccccc3Nc3c(Cl)cccc3Cl)nnc2SC1`, the IC50 in test [1] came out at 1.53 µM; in test [2], 26.3 µM. For the same compound, the Ratio IC50 in test [3] came to 17.2. The outcome in test [4] and in test [5] was Active.

The record behind these values is ChEMBL document CHEMBL5505985 (Eur J Med Chem, 2024).
